The values that follow come from article PMC11206507, “Unraveling the Impact of Six Pentacyclic Triterpenes Regulating Metabolic Pathways on Lung Carcinoma Cells” (Pharmaceuticals, 2024).

Assay [1] relates to NSCLC A549 cells. Kind of assay: MTS/PMS cell viability, A549. On TI > 1: key: '✔' means induction; '-' means non-induction of any of the tested processes. The class given is cell-based, human. The note with it: for TI > 1: summary, MRC5 vs A549. The procedure:
A similar procedure was performed to determine the IC50 of the triterpenes in a normal lung fibroblast cell line (MRC5). In brief, the A549 and MRC5 cells were seeded into 96-well plates at a density of 1 × 10^5 cells/mL in supplemented DMEM medium. […] Then, 10 uL of the MTS reagent from the CellTiter 96® Aqueous Non-Radioactive Cell Proliferation Assay (Promega G5421) was added to each well. Then, we incubated the plates at 37 °C and in a 5% CO2 atmosphere for 1 h. After incubation, the absorbance was measured at 492 nm (n = 8) in a microplate reader spectrophotometer (Thermoscientific Multiskan FC). The cell viability was calculated as follows:% Viability = (sample absorbance − sample media absorbance)/(untreated cells’ absorbance − untreated cells’ media absorbance) × 100
The cell viability data were presented by plotting the values with an average of eight measurements for each treatment (mean ± SD) in at least three independent experiments. The IC50 values were calculated with the GraphPad Prism 9 software (Prism 9; GraphPad by Dotmatics, San Diego, CA, USA) using the dose–response curve.

The next assay deals with A549 cells. As to the kind of experiment: Mitochondrial ROS production assay (DHE, flow cytometry). Type of assay: cell-based, human. The note with it: A549, IC25, 24 h; for Amount of mROS, on average of the three named triterpenes, compared to the untreated cells: group average. The procedure:
(§1) We used flow cytometry to analyze several cellular mechanistic pathways in A549 cells after incubation with the triterpenes. In general, the cells were seeded in a 6-well plate at a density of 1 × 10^6 cells/mL and incubated for 24 h in supplemented DMEM. After 24 h, the A549 cells were treated with the triterpenes, following each manufacturer’s protocol. All of the following experiments were performed in a Muse® Cell Analyzer (EMD Millipore Corporation, Temecula, CA). The instrument was calibrated before each assay using the Muse® System Check Kit (Luminex MCH100101, Luminex Corporation). Each assay was run at least in two independent experiments. For each experiment, all samples were analyzed in triplicate in the instrument and the capillary line was washed after each sample run to avoid artifacts. In addition, to address the issue of cell doublets, we used the Muse® Cell Dispersal Reagent (Luminex Corporation) in all experiments. The concentration of the triterpenes in each assay was selected depending on the cellular concentration necessary to generate the gain signal in the instrument. This means that we attempted to select concentrations avoiding excessive cytotoxicity to accurately determine the respective signal from each assay.
The production of reactive oxygen species (ROS) by mitochondria was determined using the Oxidative Stress Kit (Luminex MCH100111, Luminex Corporation). After the A549 cells were treated with the triterpenes (IC25) for 24 h, the cells were scraped and centrifuged. For ROS, the cell pellet was incubated with dihydroethidium (DHE) dye for 1 h at 37 °C.
(In flow cytometry, cells or beads pass a laser one at a time.)

A further assay relates to PDL1 gene. Kind of assay: RT-qPCR gene expression of PDL1. The note with it: for PDL1 gene expression (in words): A549, IC25 (CisPt 25 μM), 24 h. The class given is cell-based, human. The procedure: A549 cells were seeded into 6-well plates at a density of 1 × 10^6 cells/mL in supplemented DMEM. The cells were incubated with the triterpenes (IC25) for 24 h. Total RNA was extracted from the cells using the TRIzol reagent (Invitrogen Corporation, Carlsbad, CA, USA) according to the manufacturer’s instructions. The purity and concentration of RNA were assessed using a NanoDrop spectrophotometer (Thermo Fisher Scientific). cDNA was synthesized using the High-Capacity cDNA Reverse Transcription Kit (Applied Biosystems) according to the manufacturer’s instructions.
RT-qPCR was performed on a StepOnePlus® Real-Time PCR System (Thermo Fisher Scientific) using TaqMan Gene Expression Assays (Applied Biosystems) for PDL1 (CD274; Assay ID: Hs01125297_m1), ribonucleotide reductase (RR) M1 (Assay ID: Hs01040697_m1), and STAT3 (Assay ID: Hs01047586_g1). Each reaction consisted of 10 ng of cDNA, TaqMan Gene Expression Master Mix (Applied Biosystems), and TaqMan probes. The PCR cycling conditions were as follows: 95 °C for 10 min, followed by 40 cycles of 95 °C for 15 s and 60 °C for 60 s. The relative gene expression levels were calculated using the ΔΔCt method. GAPDH (Assay ID: Hs02758991_g1) was used as the endogenous control for normalization.
All RT-qPCR experiments were performed at least in triplicate. All data were expressed by plotting values with an average of four measurements for each treatment condition as the mean ± SD and analyzed with the software GraphPad Prism 9. Statistical analysis was performed using one-way analysis of variance (ANOVA) to compare the mean value of each treated type of cells versus the control (untreated cells). The statistical significance defined by the software for p values was **** < 0.0001, *** from 0.001 to 0.0001, ** from 0.001 to 0.01, * from 0.01 to 0.05, and non-significant (ns) ≥ 0.05.
In general terms: Real-time PCR tracks product formation cycle by cycle.

Assay [2] relates to NSCLC A549 cells. Set-up: method as in PMID 31338398. The note with it: 24 h, MTS/PMS; already obtained by the authors; cited from earlier work.
In the next assay the test system is LC3-II. As to the kind of experiment: Autophagy induction assay (LC3 antibody, flow cytometry). The note with it: for Autophagic response (in words): A549, IC25, 24 h, vs controls (untreated ratio 0.8, starving ratio 1); for Autophagy inhibition: summary, NSCLC A549 cells. Type of assay: cell-based, human. The procedure:
as §1
The Muse® Autophagy LC3 Antibody-Based Kit (Luminex MCH200109, Luminex Corporation) was used to determine autophagy activation by monitoring lipidated LC3-II. After the A549 cells were treated with the triterpenes (IC25) for 24 h, autophagy reagent A was added for 4 h to prevent the lysosomal degradation of LC3-II. Then, the cells were detached and centrifuged. The pellet was suspended and incubated for 30 min in the autophagy reagent B containing anti-LC3-II mouse monoclonal antibody. Finally, the cell pellet was washed and suspended in fresh assay buffer for measurement. The autophagy response was calculated using the following formula:
Autophagy ratio = mean autophagy value of treated or untreated cells/mean autophagy value of starving cells.
The starving cells were labeled ‘No supp’ as non-supplemented cells. These served as the positive signal for autophagy and were designated a ratio of 1 since they were compared to themselves. A ratio ≥1 indicates the activation of the autophagic response.

By IC50 is commonly meant the point on the concentration scale where inhibition reaches its midpoint.

Read-outs that look alike come from different tables or passages of the source. Some results are limits rather than exact numbers.

For `C=C(C)[C@@H]1CC[C@]2(C(=O)O)CC[C@]3(C)[C@H](CC[C@@H]4[C@@]5(C)CC[C@H](O)C(C)(C)[C@@H]5CC[C@]43C)[C@@H]12` [BeA, betulinic acid], the TI was 1.27 with NSCLC A549 cells [1] and more than 1 with NSCLC A549 cells [1] (TI = MRC5 IC50/A549 IC50, >1 means higher selectivity). Moreover, in the assay with A549 cells (vs negative control), the “mROS production (in words)” value is on record as “largest level of mROS”. In addition, in the assay with A549 cells, the “Amount of mROS, on average of the three named triterpenes, compared to the untreated cells” value is on record as 26.2%. Besides, the “PDL1 gene expression (in words)” value in the assay on PDL1 gene is given as “superior in suppressing both genes”. For the same compound, the IC50 in the assay on NSCLC A549 cells [2] was 15 ± 0.7 µM.
In the case of `C=C(C)[C@@H]1CC[C@]2(CO)CC[C@]3(C)[C@H](CC[C@@H]4[C@@]5(C)CC[C@H](O)C(C)(C)[C@@H]5CC[C@]43C)[C@@H]12` [Betu, betulin], in the assay on NSCLC A549 cells [1], the TI was 0.73 and the “TI > 1” value was “-”. This compound registered an IC50 in the assay on NSCLC A549 cells [1] (Homo sapiens, A549, 24 h, MTS/PMS) of 22 ± 1 µM. For the same compound, the “PDL1 gene expression (in words)” value in the assay on PDL1 gene was “did not inhibit”. Moreover, the PDL1 downregulation entry with PDL1 gene (summary, NSCLC A549 cells) is “-”. For the same compound, in the assay with LC3-II, the “Autophagic response (in words)” value is recorded as “induced an autophagic response similar to that of CisPt” and the Autophagy inhibition result was “-”.
Compound `C=C(C)[C@@H]1CC[C@]2(C)CC[C@]3(C)[C@H](CC[C@@H]4[C@@]5(C)CC[C@H](O)C(C)(C)[C@@H]5CC[C@]43C)[C@@H]12` [Lupe, lupeol] returned a TI with NSCLC A549 cells [1] of 1.26. In addition, the “Amount of mROS, on average of the three named triterpenes, compared to the untreated cells” value with A549 cells is 26.2%. Also, in the assay with LC3-II, the “Autophagic response (in words)” value is given as “inhibit the LC3-II activity”. Further, the concentration for half-maximal inhibition (IC50) with NSCLC A549 cells [2] is 80 ± 6 µM.
On to `C[C@H]1[C@H](C)CC[C@]2(C(=O)O)CC[C@]3(C)C(=CC[C@@H]4[C@@]5(C)CC[C@H](O)C(C)(C)[C@@H]5CC[C@]43C)[C@H]12` [UrA, ursolic acid], for which, in the assay with NSCLC A549 cells [1], the TI is on record as 0.57 and the “TI > 1” value was “-”. Besides, in the assay on LC3-II, the “Autophagic response (in words)” value is recorded as “induced an autophagic response similar to that of CisPt” and the Autophagy inhibition result was “-”. Further, in the assay on NSCLC A549 cells [2], the IC50 is 23 ± 1 µM.
